Experimental data as given in ChEMBL document CHEMBL1821592, “Dual effects of caffeoyl-amino acidyl-hydroxamic acid as an antioxidant and depigmenting agent” (Bioorg Med Chem Lett, 2011).
Active and inactive are the calls of the source. The rule behind the calls is not given here.

What was measured:
[1] = test system: Radical scavenging activity; assay: Antioxidant activity assessed as DPPH free radical scavenging activity at 1.85 mM after 10 mins relative to control; type: functional
[2] = target: T1, Tyrosinase (Agaricus bisporus) (UniProt O42713); assay: Inhibition of mushroom tyrosinase using L-DOPA as substrate at 50 uM after 10 mins by UV absorbance method
T1 sequence (whole entry): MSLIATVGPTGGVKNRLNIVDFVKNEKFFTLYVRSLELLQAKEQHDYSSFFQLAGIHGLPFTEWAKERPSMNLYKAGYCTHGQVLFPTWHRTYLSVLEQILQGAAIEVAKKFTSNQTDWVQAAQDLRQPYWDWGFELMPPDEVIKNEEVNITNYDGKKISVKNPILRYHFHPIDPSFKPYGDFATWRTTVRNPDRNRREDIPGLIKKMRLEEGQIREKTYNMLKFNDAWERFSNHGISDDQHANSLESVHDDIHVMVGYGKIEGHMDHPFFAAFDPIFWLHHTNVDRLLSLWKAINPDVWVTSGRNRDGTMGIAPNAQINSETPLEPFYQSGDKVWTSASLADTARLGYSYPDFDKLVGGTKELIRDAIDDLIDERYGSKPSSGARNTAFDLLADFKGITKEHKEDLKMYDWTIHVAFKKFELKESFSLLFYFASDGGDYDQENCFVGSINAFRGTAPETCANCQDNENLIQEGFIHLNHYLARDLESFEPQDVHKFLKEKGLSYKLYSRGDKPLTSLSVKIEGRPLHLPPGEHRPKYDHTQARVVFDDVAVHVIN

[3] = Antioxidant activity against linoleic acid lipid peroxidation at 90 uM by ferric thiocyanate method; type: functional
[4] = Cytotoxicity against mouse Mel-Ab cells up to 200 uM after 24 hrs by crystal violet staining based ELISA; type: cell-based
[5] = test system: Mel-Ab; assay: Inhibition of melanogenesis in mouse Mel-Ab cells assessed as reduction of melanin production at 100 uM after 4 days by ELISA reader; type: functional, cell-based
[6] = Antioxidant activity against linoleic acid lipid peroxidation at 90 uM after 48 hrs by ferric thiocyanate method; type: functional

Compound | Activity [1] | inhibition [2] | other results
O=C(O)/C=C/c1ccc(O)c(O)c1 | 52.4% | inactive | –
O=C(NO)[C@@H]1CCCN1C(=O)/C=C/c1ccc(O)c(O)c1 | 77.2% | Active | Activity [3]: Active; Activity [4]: Non-toxic; inhibition [5]: Active; Activity [6]: Active
O=C(/C=C/c1ccc(O)c(O)c1)NCC(=O)NO | 39.4% | Active | –
O=C(/C=C/c1ccc(O)c(O)c1)N[C@H](Cc1ccccc1)C(=O)NO | 47.6% | – | –
O=C(/C=C/c1ccc(O)c(O)c1)N[C@H](C(=O)NO)c1ccccc1 | 56.2% | – | –
O=C(O)[C@@H]1CCCN1C(=O)/C=C/c1ccc(O)c(O)c1 | 20% | – | Activity [3]: Active; Activity [6]: Active
O=C(/C=C/c1ccc(O)c(O)c1)NC(Cc1ccccc1)C(=O)NO (stereo not drawn) | – | Active | –
C[C@H](NC(=O)/C=C/c1ccc(O)c(O)c1)C(=O)NO | 40.7% | Active | –
O=C(/C=C/c1ccc(O)c(O)c1)N[C@@H](Cc1ccccc1)C(=O)NO | 40.9% | – | –
CC(C)C[C@H](NC(=O)/C=C/c1ccc(O)c(O)c1)C(=O)NO | 51.1% | Active | –
O=C(/C=C/c1ccc(O)c(O)c1)NCCC(=O)NO | 42.2% | Active | –
